Laboratory results: patent publication US6670339B1, “Use of sulfated oligosaccharides in lowering blood triglyceride levels” (The Australian National University, priority 1997, dated 2003)

Columns and labels:
[1] = test system: blood triglyceride levels; test: Blood triglyceride levels in male and female Lewis rats after 7 days of twice daily s.c. injection; format: in vivo
Protocol: 2. […] Thus, on day 0 the rats were weighed and placed into three groups of the same sex, containing three rats each based on weight. On every subsequent morning their weights were recorded. Each morning beginning on day 1 at approximately 8.00 AM and each evening at approximately 8.00 PM the rats were injected in the following manner. The control groups received sterile normal saline solution 100 μl s.c. The first treatment groups of male and female rats received the sulfated mannopentaose phosphate, at a dose of 10 mg/kg s.c. in 100 μl of sterile saline solution (total daily dose 20 mg/kg). The second treatment groups of male and female rats received the sulfated mannopentaose phosphate at a dose of 50 mg/kg s.c. (total daily dose 100 mg/kg). This injection routine was repeated for a total of 7 days.
On morning of day 8 of the experiment, the rats were anaesthetised and blood was taken for triglyceride analysis. Triglyceride levels were determined using a commercially available assay kit (Sigma, Triglyceride—GPO-Tinder). […] Thus, blood triglyceride levels in the male control group averaged 1.7±0.21 mmol/L, in the […] male treatment group averaged 0.9±0.2 mmol/L and in the 100 mg/kg/day male treatment group averaged 0.3±0.0 mmol/L. Blood triglyceride levels in the female control group averaged 1.13±0.19 mmol/L, and in the 20 mg/kg/day female treatment group averaged 0.5±0.0 mmol/L and in the 100 mg/kg/day female treatment group averaged 0.17±0.03 mmol/L.

[2] = test system: serum triglyceride levels; test: Serum triglyceride levels in mice 2 hours after a single s.c. dose (dose response); format: in vivo, CBA/h female mice; conditions: single s.c. doses of 10 mg/kg and above (10, 20, 50, 100 mg/kg), 2 hours after injection
Protocol: FIG. 2. Effect of different single doses of sulfated mannopentaose phosphate (PI-88) (10-100 mg/kg) on serum triglyceride levels 2 hours following s.c. injection. Data presented as group means±SEM (n=4).
Thus, 20 CBA/h female mice 8-10 weeks old were weighed and placed into five groups, containing four mice each based on weight. The control group was injected with sterile normal saline solution 100 μl s.c. The respective treatment groups were injected with sulfated mannopentaose phosphate at doses of 10, 20, 50 or 100 mg/kg s.c. in a volume of 100 μl of sterile normal saline solution. Two hours following injection, mice were anaesthetised and blood was collected via cardiac puncture and allowed to clot and serum triglyceride levels were measured using a commercially available kit (Sigma, Triglyceride—GPO-Trinder).

[3] = test system: blood triglyceride levels; test: Blood triglyceride levels in mice after alternate daily s.c. injection; format: in vivo, CBA/h female mice; conditions: 50 mg/kg s.c. on alternate days, 4 injections, 24 hours after last injection; control 1.11±0.1
Protocol: Thus, 10 CBA/h female mice 8-10 weeks old were weighed and divided into two groups of 5 mice each based on weight. Mice in the control group were injected with sterile normal saline solution 100 μl s.c. on alternate days for a total of 4 injections. Mice in the treatment group were injected with the sulfated mannopentaose phosphate at a dose of 50 mg/kg s.c. on alternate days for a total of 4 injections. Twenty-four hours following the last injection, blood (50 μl) was collected from the tail veins of each animal and assayed for triglyceride levels (Sigma, Triglyceride—GPO-Trinder). Blood triglyceride levels in the control group averaged 1.11±0.1 mM and blood triglyceride levels in the treatment group averaged 0.64±0.04 mM.

[4] = test system: serum triglyceride levels; test: Serum triglyceride lowering by glycosaminoglycans and sulfated oligosaccharides in mice; format: in vivo, CBA/h female mice; conditions: 50 mg/kg s.c., 2 hours after injection
Protocol: FIG. 3. Ability of different glycosaminoglycans and sulfated oligosaccharides to lower serum triglyceride levels in CBA mice. Compounds were injected s.c. at a dose of 50 mg/kg, blood samples taken 2 hours later and assayed for triglyceride content. Each histogram is the mean±SEM (n=3) for each treatment.
Mice (CBA/h female mice 8-10 weeks old) were injected s.c. with a range of glycosaminoglycans and sulfated oligosaccharides at a dose of 50 mg/kg and 2 hours later mice were anaesthetised, blood was collected via cardiac puncture and allowed to clot and serum triglyceride levels measured using a commercially available kit (Sigma, Triglyceride—GPO-Trinder). […] The only other compound with some activity was suramin, a sulfonated compound which has previously been used as an angiogenesis and heparanase inhibitor.

Substance: sulfated mannopentaose phosphate [PI-88 (15 SO4/molecule)]
- blood triglyceride levels ([1]; female Lewis rats, 20 mg/kg/day s.c., blood on day 8, control 1.13±0.19): 0.5 ± 0.0 mmol/L
- blood triglyceride levels ([1]; female Lewis rats, 100 mg/kg/day s.c., blood on day 8, control 1.13±0.19): 0.17 ± 0.03 mmol/L
- blood triglyceride levels ([1]; male Lewis rats, 100 mg/kg/day s.c., blood on day 8, control 1.7±0.21): 0.3 ± 0.0 mmol/L
- blood triglyceride levels ([1]; male Lewis rats, 'mg/kg/day' group (lower dose), s.c. twice daily, blood on day 8, control 1.7±0.21): 0.9 ± 0.2 mmol/L
- reduction in blood triglyceride levels, in words [2]: significant reduction
- blood triglyceride levels [3]: 0.64 ± 0.04 mM
- effect on serum triglyceride levels, in words [4]: lowered serum triglyceride levels
